Common to all, as to type: cell-based
For assay [1], the system named is Escherichia coli. In words: MIC/MBC by two-fold dilution, microtiter 96 well plate method. Particulars: E. coli (ATCC—25922), standard/control strain. The procedure: (§1) Compounds 6a and 6b were tested for their antimicrobial activity against both gram positive and gram negative drug-resistant bacteria. Minimum inhibitory concentration (MIC) and minimum bactericidal concentration (MBC) values for compounds 6a and 6b, as compared with a reference antibacterial drug (ampicillin), for Escherichia coli (EC), Pseudomonas aeruginosa (PS), Salmonella typhi (ST), Staphylococcus aureus (SA), and Staphylococcus epidermis (SE) are reported in Tables 2A and 2B.
(§2) The quantitative and qualitative screening of anti-bacterial activity of compounds 6a and 6b was conducted, the results being described above. Quantitative screening was determined by minimal inhibitory concentration (MIC) and minimal bactericidal concentration (MBC), while qualitative screening was accomplished by disc diffusion method. E. coli (ATCC—25922) and S. epidermis (ATCC 12228) were used as standard strains, and drug-resistant pathogens P. aeruginosa, S. typhi, and S. aureus were used to screen the antimicrobial activity. Gram negative bacteria were maintained on nutrient broth (NB)/agar plates (NA) and gram positive bacteria were maintained on trypticase soy broth (TSB)/agar plates (TSA). The compounds 6a and 6b concentration range was prepared by two-fold dilution in a sterile broth from the stock, using a microtiter 96 well plate method. Twelve dilutions of each compound, ranging from 7500 to 3.65 μg/ml, were tested, and Ampicillin was used as a positive control agent (with a range of 500 to 0.24 μg/ml).

The subject of assay [2] is Pseudomonas aeruginosa. The assay is described as above. As to conditions: drug-resistant P. aeruginosa. The procedure:
as §1, §2

For assay [3], the system named is Salmonella typhi. The description is as above. As to conditions: drug-resistant S. typhi. As to the method: as §1, §2
For assay [4], the system named is Staphylococcus aureus. The description is as above. As to conditions: drug-resistant S. aureus. The procedure:
as §1, §2

Assay [5] deals with Staphylococcus epidermis. The assay is described as above. Particulars: S. epidermis (ATCC 12228), standard/control strain. As to the method:
as §1, §2

Assay [6] has as its system Pseudomonas aeruginosa. In words: Disc diffusion, zone of inhibition. Further details: key to Zone of inhibition (class): R: Resistant. As to conditions: drug-resistant P. aeruginosa; for Zone of inhibition: diameter: 37° C., 24h. The procedure: (§3) The qualitative screenings of antimicrobial activity were measured by plating in petri dishes to determine the formation of zones of inhibition for bacterial pathogens tested against compounds 6a, 6b and the standard antibiotic ampicillin.
as §2
(§4) The mid log bacterial inoculum was speeded on NA/TSA and the loaded disc was placed on agar plates and incubated at 37° C. for 24h. After this period, the inhibitions produced by the compounds around the disc were measured using antibiotic zone scale (Hi-Media, Mumbai, India) and zone of inhibitions were measured in mm.
In general terms: In agar diffusion tests the substance spreads into inoculated agar from a disc or well.

Assay [7] relates to Salmonella typhi. In words: Disc diffusion, zone of inhibition. Also noted: key to Zone of inhibition (class): R: Resistant. As to conditions: drug-resistant S. typhi; for Zone of inhibition: diameter: 37° C., 24h. The procedure: as §3, §2, §4
In assay [8] the test system is Staphylococcus aureus. Nature of the assay: Disc diffusion, zone of inhibition. Also noted: key to Zone of inhibition (class): R: Resistant. Particulars: drug-resistant S. aureus; for Zone of inhibition: diameter: 37° C., 24h. The procedure:
as §3, §2, §4

Assay [9] has as its system Escherichia coli. Nature of the assay: Disc diffusion, zone of inhibition. As to conditions: E. coli control strain; for Zone of inhibition: diameter: 37° C., 24h. As to the method:
as §3, §2, §4

For assay [10], the system named is Staphylococcus epidermis. Nature of the assay: Disc diffusion, zone of inhibition. Particulars: S. epidermis control strain; for Zone of inhibition: diameter: 37° C., 24h. As to the method:
as §3, §2, §4

For assay [11], the system named is P. aeruginosa. Nature of the assay: AO/EB live/dead bacterial double staining. Particulars: P. aeruginosa treated at MIC, 4 hours; fluorescent microscope. As to the method: (§5) The acridine orange (AO) and ethidium bromide (EB) double staining method was used to analyse the Live/dead bacterial cells for untreated and compound 6a-treated S. aureus and P. aeruginosa cells. Both sets of cells, treated and untreated for each of the two bacteria, were stained with AO/EB for 15 minutes. The unbound dyes were removed by rinsing the cells twice with phosphate buffer saline (PBS). 10 μl samples of each were then placed on a glass slide with coverslip, and observed using a ZEISS inverted florescent microscope. The untreated gram positive (FIG. 6A) and gram negative (FIG. 6C) bacterial cells appeared green due to the presence of healthy, viable cells with intact/undamaged cell membranes and uniform chromatin. In contrast, the compound 6a-treated cells (treated gram positive in FIG. 6B, and treated gram negative in 6D) appeared red due to the resulting dents, blisters and damaged cell walls on bacterial cells, providing entry for the EB dye. Thus, the AO/EB double staining confirms the bactericidal action of compound 6a through cell wall and cell membrane damage.
(§6) Fluorescent dye stock solution was prepared by dissolving equal quantities of acridine orange (AO) and ethidium bromide (EB)—10 mg each—in 10 ml of PBS. The working solution was prepared by diluting 200 μl of stock solution into 10 ml of PBS. […]

The subject of assay [12] is S. aureus. In words: AO/EB live/dead bacterial double staining. Particulars: S. aureus treated at MIC, 4 hours; fluorescent microscope. As to the method: as §5, §6

SMILES strings stand for the structures. Values after ≈ are worked out from the molar mass of the structure shown. Values joined by “and” are separate entries in the source; they are usually repeats but may differ in a detail not shown here. Equal values may be shown once. “Also recorded” adds a separate entry of the source. Read-outs that look alike come from different tables or passages of the source. Some results are limits rather than exact numbers.

For `O=C1C(=Cc2ccc(F)cc2)CNCC12C(c1ccc(F)cc1)C1CSCN1C21C(=O)Nc2ccccc21` (stereo not drawn) [Compound 6a, spiro[5.3″ ]-oxindole-spiro-[6.2′]-6′-(4-fluorophenylmethylidene)tetrahydro-4′(1H)-pyridinone-7-(4-fluorophenyl)tetrahydro-1H-pyrrolo[1,2-c][1,3] thiazole], the MBC in assay [1] was found to be 29.25 µg/mL (≈ 55.2 µM); in [2], 58.55 µg/mL (≈ 111 µM); in [3], 58.55 µg/mL (≈ 111 µM); in assay [4], 58.55 µg/mL (≈ 111 µM); in assay [5] it was 29.25 µg/mL (≈ 55.2 µM). Also, the MIC came to 14.62 µg/mL (≈ 27.6 µM) in [1]; 29.25 µg/mL (≈ 55.2 µM) in assay [2]; 29.25 µg/mL (≈ 55.2 µM) in assay [3]; 29.25 µg/mL (≈ 55.2 µM) in assay [4]; 14.62 µg/mL (≈ 27.6 µM) in assay [5]. Moreover, the “Zone of inhibition: diameter” value in assay [6] (60 μg/disc) is 19.3±0.81 mm; in [7] (60 μg/disc), 22.3±1.47 mm; in assay [8] (60 μg/disc) it was 26.3±0.81 mm; in [9] (60 μg/disc), 27.3±1.08 mm; in assay [10] (60 μg/disc), 31.3±1.08 mm and 31.3 mm. Further, the “Live/dead AO/EB double staining appearance of treated cells” value in assay [11] is “dented, blistered and damaged cell walls; also recorded: appeared red”; in assay [12], “dented, blistered and damaged cell walls; also recorded: appeared red”.
In the case of `O=C1C(=Cc2ccccc2F)CNCC12C(c1ccccc1F)C1CSCN1C21C(=O)Nc2ccccc21` (stereo not drawn) [Compound 6b, spiro[5.3″ ]-oxindole-spiro-[6.2′]-6′-(2-fluorophenylmethylidene)tetrahydro-4′(1H)-pyridinone-7-(2-fluorophenyl)tetrahydro-1H-pyrrolo[1,2-c][1,3] thiazole], the MBC in assay [1] worked out at 58.55 µg/mL (≈ 111 µM); in [2], 117.15 µg/mL (≈ 221 µM); in [3] it was 117.15 µg/mL (≈ 221 µM); in assay [4] it was 117.15 µg/mL (≈ 221 µM); in [5] it was 58.55 µg/mL (≈ 111 µM). The MIC in assay [1] was 29.25 µg/mL (≈ 55.2 µM); in assay [2], 58.55 µg/mL (≈ 111 µM); in assay [3], 58.55 µg/mL (≈ 111 µM); in assay [4] it was 68.55 µg/mL (≈ 129 µM); in assay [5], 29.25 µg/mL (≈ 55.2 µM). The “Zone of inhibition: diameter” value is 16.3 ± 1.63 mm in assay [6] (120 μg/disc); 16.3 ± 1.08 mm in assay [7] (120 μg/disc); 17.6 ± 1.47 mm in [8] (120 μg/disc); 18.6 ± 1.47 mm in assay [9] (120 μg/disc); 19.3 mm in [10] (120 μg/disc).
Take `CC1(C)S[C@@H]2[C@H](NC(=O)[C@H](N)c3ccccc3)C(=O)N2[C@H]1C(=O)O` [Ampicillin, reference compound]: the MBC turned out to be 7.81 µg/mL (≈ 22.4 µM) in [1] (Escherichia coli, read-out: MBC) and 7.81 µg/mL (≈ 22.4 µM) in [5] (Staphylococcus, ATCC12228, read-out: MBC). Further, the MIC in assay [1] (Escherichia coli, read-out: MIC) was found to be 3.9 µg/mL (≈ 11.2 µM); in assay [5] (Staphylococcus, ATCC12228, read-out: MIC) it was 3.9 µg/mL (≈ 11.2 µM). The “Zone of inhibition (class)” value in assay [6] (25 μg/disc), in assay [7] (25 μg/disc) and in assay [8] (25 μg/disc) was “R” throughout. The zone of inhibition at 25 µg/disc in [8] (Staphylococcus aureus, 25 μg/disc, read-out: Zone of inhibition: diameter) was < 13 mm; in [9] (Escherichia coli, 25 μg/disc, read-out: Zone of inhibition: diameter) it was 22.3 ± 1.77 mm; in assay [10] (Staphylococcus, 25 μg/disc, read-out: Zone of inhibition: diameter) it was 23.3 mm.

By MBC is commonly meant the lowest tested concentration that kills the bacteria rather than only halting them. The MIC is the smallest concentration in the dilution series that meets the test's criterion for growth inhibition. For orientation: zone of inhibition means the size of the clear area around the sample on an inoculated plate.
